Experimental findings from patent publication US12297244B2, “Systems and methods for inhibiting γ-secretase production of amyloid-β peptides” (Rensselaer Polytechnic Institute, priority 2020, dated 2025) are described below.

Test [1] deals with T1, γ-secretase in the HeLa membrane (Homo sapiens, UniProt P05067). The test can be described thus: AlphaLISA γ-secretase assay with biotinylated Sb4 (APP sequence) substrate. The class given is biochemical. Also noted: other: γ-secretase in HeLa membrane, Sb4 substrate; fused on or other part: Biotin label on Sb4. Particulars: γ-secretase in HeLa membrane, Sb4 substrate. The text has this:
(§1) Referring now to FIG. 1, and without wishing to be bound by theory, γ-secretase cleaves within the transmembrane domain of the amyloid precursor protein (APPTM) to release Aβ, which aggregates to form neurotoxic oligomers and fibrils. […] Formula III decreased the production of Aβ40 and Aβ42 by γ-secretase in a dose dependent manner (FIG. 2).
(In general: Alpha assays give light when donor and acceptor beads are brought close together.)

For test [2], the target named is T1, γ-secretase in the HeLa membrane. Described as above. Also noted: fused on or other part: Biotin label on Sb4. Type of test: biochemical. Particulars: from lower IC50 for Aβ42 than Aβ40.
From the text: as §1

Like-named read-outs stand apart in the source and are kept apart here.

T1 sequence (P05067 whole entry, the tested form may be a part): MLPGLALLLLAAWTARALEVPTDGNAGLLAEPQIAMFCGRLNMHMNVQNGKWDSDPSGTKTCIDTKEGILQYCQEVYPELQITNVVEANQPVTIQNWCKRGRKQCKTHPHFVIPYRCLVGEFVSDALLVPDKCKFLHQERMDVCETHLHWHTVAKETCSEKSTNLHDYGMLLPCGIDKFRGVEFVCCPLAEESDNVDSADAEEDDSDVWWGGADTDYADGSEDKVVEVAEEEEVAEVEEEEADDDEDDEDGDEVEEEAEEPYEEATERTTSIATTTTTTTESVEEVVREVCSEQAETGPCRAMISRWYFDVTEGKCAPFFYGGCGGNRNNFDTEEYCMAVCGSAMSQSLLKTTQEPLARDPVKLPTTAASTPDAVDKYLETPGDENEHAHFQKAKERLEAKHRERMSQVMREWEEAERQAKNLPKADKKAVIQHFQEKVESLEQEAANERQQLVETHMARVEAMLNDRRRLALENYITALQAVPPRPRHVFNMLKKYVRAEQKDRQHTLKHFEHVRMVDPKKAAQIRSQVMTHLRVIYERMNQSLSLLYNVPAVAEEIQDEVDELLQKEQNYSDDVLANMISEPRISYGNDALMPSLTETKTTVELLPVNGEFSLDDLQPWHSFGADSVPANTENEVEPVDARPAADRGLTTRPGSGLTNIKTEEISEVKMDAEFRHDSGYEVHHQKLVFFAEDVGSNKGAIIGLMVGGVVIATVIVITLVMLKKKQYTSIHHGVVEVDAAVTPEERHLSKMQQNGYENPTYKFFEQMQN

For the molecule `O=C(C=COc1ccc2ccccc2c1)c1ccc(F)cc1` [Formula III], the figures for the IC50 in test [1] (read-out: IC50 for the inhibition of Aβ40 production) and in test [1] (read-out: IC50 for the inhibition of Aβ42 production) were 3900 nM and 1900 nM, respectively. Also, in test [2], the “selectivity in inhibiting Aβ42 production over Aβ40” value was “selectivity in inhibiting Aβ42 production over Aβ40”.
